Test systems include BT-549 breast; HCT-116 colon; HT29 colon; LOX IMVI melanoma; M14 melanoma; NCI-H522 lung; RPMI-8226 leukemia; SF-539 CNS; SNB-19 CNS; U251 CNS.
Holding throughout (assay): NCI anticancer screen, dose series, 48 h

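All cell lines were grown in 96-well plates and treated with compound for 48 hours. Here, GI50 denotes the concentration required for 50% inhibition of growth. TGI denotes the concentration required for complete inhibition of growth.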

As to `CCN(C(=O)N1CCN(c2cc3c(cc2F)c(=O)c(C(=O)O)cn3C2CC2)CC1)c1nc(-c2ccccc2)cs1`, the GI50 was 2.27 µM in the assay on BT-549 breast; 2.64 µM with HCT-116 colon; 3.2 µM in the assay with HT29 colon; 1.39 µM in the assay on LOX IMVI melanoma; 3.16 µM with M14 melanoma; 2.01 µM in the assay on NCI-H522 lung. Further, the GI50 in the assay on RPMI-8226 leukemia is 2.41 µM; in the assay on SF-539 CNS, 2.48 µM; with SNB-19 CNS it was 3.94 µM; with U251 CNS, 3.25 µM. In addition, the TGI in the assay on BT-549 breast was 7.91 µM; in the assay on HCT-116 colon, over 100 µM; in the assay with HT29 colon it was over 100 µM; in the assay on LOX IMVI melanoma, 9.09 µM; in the assay with M14 melanoma, over 100 µM; in the assay with NCI-H522 lung it was 7.61 µM. Besides, the TGI in the assay on RPMI-8226 leukemia is 8.75 µM; with SF-539 CNS, 7.51 µM; in the assay with SNB-19 CNS it was over 100 µM; with U251 CNS, 22.9 µM.
For `O=C(Nc1ccc(OS(=O)(=O)c2ccc(F)cc2)cc1)C12CC3CC(CC(C3)C1)C2`, the GI50 was 4.37 µM in the assay with BT-549 breast; 0.929 µM with HCT-116 colon; 0.211 µM in the assay with HT29 colon; over 27.5 µM in the assay on LOX IMVI melanoma; 8.12 µM in the assay on M14 melanoma; 1.72 µM with NCI-H522 lung. Besides, the GI50 in the assay with RPMI-8226 leukemia is 0.403 µM; with SF-539 CNS, 0.75 µM; with SNB-19 CNS, 15.9 µM; with U251 CNS, 18 µM. Further, the TGI with BT-549 breast is 75.8 µM; with HCT-116 colon it was over 100 µM; in the assay with HT29 colon, over 100 µM; in the assay with LOX IMVI melanoma it was over 100 µM; in the assay with M14 melanoma it was over 100 µM; with NCI-H522 lung it was over 100 µM. For the same compound, the TGI is over 100 µM with RPMI-8226 leukemia, over 100 µM with SF-539 CNS, 74.4 µM in the assay on SNB-19 CNS and over 100 µM with U251 CNS.
Regarding `N#CCc1c(F)c(F)c(F)c(F)c1F`, the TGI in the assay with BT-549 breast, in the assay with HCT-116 colon, in the assay with HT29 colon, in the assay on LOX IMVI melanoma, in the assay with M14 melanoma and with NCI-H522 lung was over 100 µM each time. Also, the TGI in the assay with RPMI-8226 leukemia, with SF-539 CNS, in the assay with SNB-19 CNS and in the assay with U251 CNS was over 100 µM each time.
Consider `COc1ccccc1-n1cnc(N)c1C(=O)c1cc(OC)c(OC)c(OC)c1`, for which the GI50 is 3.55 µM in the assay with BT-549 breast; 4.95 µM in the assay on HCT-116 colon; 3.41 µM in the assay with HT29 colon; 6.39 µM with LOX IMVI melanoma; 3.5 µM in the assay on M14 melanoma; 1.94 µM with NCI-H522 lung. Besides, the GI50 is 2.42 µM with RPMI-8226 leukemia, 2.42 µM with SF-539 CNS, 4 µM with SNB-19 CNS and 3.74 µM with U251 CNS. The TGI in the assay with BT-549 breast was 66.2 µM; in the assay with HCT-116 colon, over 100 µM; in the assay with HT29 colon, over 100 µM; in the assay on LOX IMVI melanoma it was over 100 µM; in the assay on M14 melanoma it was over 100 µM; with NCI-H522 lung, over 100 µM. In addition, the TGI is 13.3 µM in the assay with RPMI-8226 leukemia, 9.12 µM in the assay with SF-539 CNS, over 100 µM with SNB-19 CNS and over 100 µM in the assay with U251 CNS.
On to `CC/C=C\C[C@H]1C/C=C2/C(=O)C=C[C@H]2C/C=C\CCCC(=O)O1`, for which the GI50 was 2.52 µM in the assay on BT-549 breast; 1 µM in the assay with HCT-116 colon; 1.85 µM in the assay with HT29 colon; 1.68 µM in the assay on LOX IMVI melanoma; 1.69 µM with M14 melanoma; 1.98 µM in the assay with NCI-H522 lung. Further, the GI50 is 1.59 µM in the assay with RPMI-8226 leukemia, 2.07 µM in the assay with SF-539 CNS, 5.17 µM with SNB-19 CNS and 1.95 µM in the assay with U251 CNS. Besides, the TGI with BT-549 breast amounted to 9.29 µM; in the assay on HCT-116 colon, 2.55 µM; in the assay on HT29 colon, 6.15 µM; with LOX IMVI melanoma, 6.7 µM; with M14 melanoma, 8.34 µM; in the assay on NCI-H522 lung it was 7.21 µM. The TGI came out at 4.82 µM in the assay with RPMI-8226 leukemia, 8.16 µM in the assay on SF-539 CNS, 11.2 µM in the assay with SNB-19 CNS and 7.09 µM with U251 CNS.
For the compound `C=C1CCC2CC1C(C(=O)c1c[nH]c3ccccc13)=NC2(C)C` (stereo not given), the TGI in the assay on BT-549 breast, with HCT-116 colon, in the assay on HT29 colon, with LOX IMVI melanoma, with M14 melanoma and in the assay with NCI-H522 lung was over 100 µM in each case. The TGI in the assay with RPMI-8226 leukemia, in the assay on SF-539 CNS, in the assay with SNB-19 CNS and with U251 CNS was over 100 µM each time.
Turning to `Cc1c2cnccc2c(C)c2c1c1cc(O)ccc1n2C(C)C`, the GI50 was 1.11 µM with BT-549 breast; 0.964 µM in the assay with HCT-116 colon; 3.11 µM in the assay with HT29 colon; 0.47 µM with LOX IMVI melanoma; 0.678 µM in the assay on M14 melanoma; 0.475 µM in the assay with NCI-H522 lung. In addition, the GI50 in the assay on RPMI-8226 leukemia is 1.05 µM; with SF-539 CNS, 1.32 µM; in the assay with SNB-19 CNS, 1.76 µM; in the assay on U251 CNS it was 1.77 µM. The TGI with BT-549 breast stood at 2.73 µM; in the assay with HCT-116 colon, 6.56 µM; with HT29 colon, 11.5 µM; with LOX IMVI melanoma it was 1.9 µM; in the assay on M14 melanoma, 2.34 µM; in the assay on NCI-H522 lung, 2.54 µM. Besides, the TGI in the assay on RPMI-8226 leukemia was determined as 3.19 µM; in the assay with SF-539 CNS, 2.9 µM; with SNB-19 CNS, 10.9 µM; in the assay with U251 CNS, 6.51 µM.

The values above are taken from PubChem BioAssay (NCI).
